# Where two headings read alike, the source gives them in different places.
# Tests used:
# [1] = Mouse Liver Microsome Metabolic Stability Assay; format: in vitro ADME; conditions: pH 7.4, Mouse liver microsomes, 37° C., NADPH, read-out: t½
# In short: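 Compounds (2 μM, 1.6% solvent) incubated at 37 °C with mouse liver microsomes (0.42 mg/mL) in 100 mM phosphate pH 7.4 with an NADPH-regenerating system; five time points over 40 min, duplicates, LC-MS/MS. kel, t1/2 and Clint from linear regression of ln(AUC) vs. time; no-NADPH controls.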
# [2] = system: NCI-H358 (expressing KRas G12C mutant); experiment: Proliferation Assay (Cell Viability Assay); format: cell-based; conditions: Homo sapiens
# In short: (§1)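 Cells plated at 2000–5000/well overnight, then treated 2–4 days at 37 °C, 5% CO2 with compound at 10 μM single dose or serial dilutions for IC50, in 0.3% DMSO and 10% FBS. Viability read by CellTiter 96 Aqueous One (MTS); % proliferation inhibition calculated from raw data.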
# [3] = system: MM.1R (expressing wild type KRAS); experiment: Proliferation Assay (Cell Viability Assay); format: cell-based; conditions: Homo sapiens, read-out: MM.1R IC50 (nM) Multiple Myloma
# In short: as §1
# [4] = system: GP2d (expressing KRas G12D mutant); experiment: Proliferation Assay (Cell Viability Assay); format: cell-based; conditions: Homo sapiens
# In short: as §1
# [5] = system: A375 (wild type Kras); experiment: Proliferation Assay (Cell Viability Assay); format: cell-based; conditions: Homo sapiens, A-375
# In short: as §1
# [6] = system: BT-549 (expressing wild type KRAS); experiment: Proliferation Assay (Cell Viability Assay); format: cell-based; conditions: Homo sapiens
# In short: as §1
# [7] = Proliferation assay, NCI-H358, read-out: NCI-H358 IC50 (nM) NSCLC
# [8] = Proliferation assay, read-out: GP2d IC50 (nM) Colorectal
# [9] = Proliferation assay, A375, read-out: A375 IC50 (nM) Melanoma
# [10] = BT-549, Proliferation assay, BT549, read-out: BT549 IC50 (nM) TNBC
structure (smiles),measurement,setting,value
"CCOc1cc(Nc2nc(-c3nccn3C)nn3cc(-c4ccn(C)n4)c(C)c23)n[nH]1 [Compound 260, N-(5-Ethoxy-1H-pyrazol-3-yl)-5-methyl-2-(1-methyl-1H-imidazol-2-yl)-6-(1-methyl-1H-pyrazol-3-yl)pyrrolo[2,1-f][1,2,4]triazin-4-amine]",half-life at 2 µM,[1],< 10 min
"Cc1c(-c2ccn(C)n2)cn2nc(-c3nccn3C)nc(Nc3cc(-c4ccccn4)ccn3)c12 [Compound 248, N-([2,4′-Bipyridin]-2′-yl)-5-methyl-2-(1-methyl-1H-imidazol-2-yl)-6-(1-methyl-1H-pyrazol-3-yl)pyrrolo[2,1-f][1,2,4]triazin-4-amine]",half-life at 2 µM,[1],> 10 min
"Cc1c(-c2ccn(C)n2)cn2nc(-c3nccn3C)nc(Nc3cc(-c4cccnc4)ccn3)c12 [Compound 250, N-([3,4′-Bipyridin]-2′-yl)-5-methyl-2-(1-methyl-1H-imidazol-2-yl)-6-(1-methyl-1H-pyrazol-3-yl)pyrrolo[2,1-f][1,2,4]triazin-4-amine]",half-life at 2 µM,[1],< 10 min
"COc1cc(Nc2nc(-c3nccn3C)nn3cc(-c4ccn(C)n4)c(C)c23)n[nH]1 [Compound 252, N-(5-Methoxy-1H-pyrazol-3-yl)-5-methyl-2-(1-methyl-1H-imidazol-2-yl)-6-(1-methyl-1H-pyrazol-3-yl)pyrrolo[2,1-f][1,2,4]triazin-4-amine]",half-life at 2 µM,[1],< 10 min
same,IC50,[2]; [7],1 to 10 nM
same,IC50,[3],< 1 nM
same,IC50,[4]; [8],1 to 10 nM
same,IC50,[5]; [9],> 50 nM
same,IC50,[6]; [10],10 to 50 nM
"Cc1cc(Nc2nc(-c3nccn3C)nn3cc(-c4ccn(C)n4)c(C)c23)n[nH]1 [Compound 255, 5-Methyl-2-(1-methyl-1H-imidazol-2-yl)-6-(1-methyl-1H-pyrazol-3-yl)-N-(5-methyl-1H-pyrazol-3-yl)pyrrolo[2,1-f][1,2,4]triazin-4-amine]",half-life at 2 µM,[1],> 10 min
same,IC50,[2]; [7],1 to 10 nM
same,IC50,[3],< 1 nM
same,IC50,[4]; [8],1 to 10 nM
same,IC50,[5]; [9],10 to 50 nM
same,IC50,[6]; [10],1 to 10 nM
"Cc1c(-c2ccn(C)n2)cn2nc(-c3nccn3C)nc(Nc3cc(C(C)C)[nH]n3)c12 [Compound 268, N-(5-Isopropyl-1H-pyrazol-3-yl)-5-methyl-2-(1-methyl-1H-imidazol-2-yl)-6-(1-methyl-1H-pyrazol-3-yl)pyrrolo[2,1-f][1,2,4]triazin-4-amine]",half-life at 2 µM,[1],< 10 min
"Cc1c(-c2ccn(C)n2)cn2nc(-c3nccn3C)nc(Nc3cc(-c4ccccn4)[nH]n3)c12 [Compound 265, 5-Methyl-2-(1-methyl-1H-imidazol-2-yl)-6-(1-methyl-1H-pyrazol-3-yl)-N-(5-(pyridin-2-yl)-1H-pyrazol-3-yl)pyrrolo[2,1-f][1,2,4]triazin-4-amine]",half-life at 2 µM,[1],> 10 min
"Cc1[nH]nc(Nc2nc(-c3nccn3C)nn3cc(-c4ccn(C)n4)c(C)c23)c1C [Compound 267, N-(4,5-Dimethyl-1H-pyrazol-3-yl)-5-methyl-2-(1-methyl-1H-imidazol-2-yl)-6-(1-methyl-1H-pyrazol-3-yl)pyrrolo[2,1-f][1,2,4]triazin-4-amine]",half-life at 2 µM,[1],> 10 min
same,IC50,[2]; [7],1 to 10 nM
same,IC50,[3],< 1 nM
same,IC50,[4]; [8],1 to 10 nM
same,IC50,[5]; [9],1 to 10 nM
same,IC50,[6]; [10],10 to 50 nM
"COc1ccnc(Nc2nc(-c3nccn3C)nn3cc(-c4ccn(C(C)C)n4)c(C)c23)c1 [Compound 58, 6-(1-Isopropyl-1H-pyrazol-3-yl)-N-(4-methoxypyridin-2-yl)-5-methyl-2-(1-methyl-1H-imidazol-2-yl)pyrrolo[2,1-f][1,2,4]triazin-4-amine]",IC50,"[2]; NCI-H358, NSCLC, KRas G12C, read-out: Proliferation assay IC50",< 150 nM
same,IC50,[2]; [7],10 to 50 nM
same,IC50,[3],< 1 nM
same,IC50,[4]; [8],10 to 50 nM
same,IC50,"[4]; colon, KRas G12D, read-out: Proliferation assay IC50",< 150 nM
same,IC50,"[5]; A375, melanoma, KRas WT, read-out: Proliferation assay IC50",< 150 nM
same,IC50,[5]; [9],1 to 10 nM
same,IC50,[6]; [10],1 to 10 nM
same,IC50,"[6]; BT-549, Breast (TNBC), KRas WT, read-out: Proliferation assay IC50",< 150 nM

# — US12459951B2, “Compounds that interact with RAS superfamily proteins for treatment of cancers, inflammatory diseases, rasopathies, and fibrotic disease” (SHY Therapeutics, LLC, priority 2022, dated 2025)
